Assay results as given in US20220274938A1, “5-[(1S)-1-(4-BROMOPHENOXY)ETHYL]-2H-TETRAZOLE DERIVATIVES AND RELATED COMPOUNDS AS CLC-1 ION CHANNEL INHIBITORS FOR TREATING NEUROMUSCULAR DISORDERS” (NMD PHARMA A/S, priority 2019, published 2022).

Tested on: female Lewis rats
Assay: In situ muscle contractile characteristics (isometric hindlimb force) under Cisatracurium infusion
Format: in vivo, rat
Conditions: 21.6 mg/kg i.v.; 80 Hz stimulation; neuromuscular transmission partially inhibited by Cisatracurium
Procedure: Isometric hindlimb force was measured in 12-week old female Lewis rats in the presence and absence of compound.
Rats were placed under anesthesia with isoflurane (2-4%), intubated and subsequently connected to a micro ventilator (Microvent 1, Hallowell EMC, US). Two stimulation electrodes were inserted through the skin to stimulate the sciatic nerve. A small incision was made proximal to the ankle, to expose the Achilles tendon, which was tied by cotton string, and connected to a force transducer (Fort250, World Precision Instruments) with adjustable position (Vernier control). The Achilles tendon was then cut distal to the attached cotton string. […]
Muscle contractile properties were assessed by applying an electrical current (under supramaximal voltage conditions) to the nerve and recording the force generated by the muscle. The muscle was stretched until maximal force was obtained, when assessed by 2 Hz stimulation. Isometric force was measured every 30 seconds at 12 Hz (Twitch), 10 pulses, and at every 5 minutes at 80 Hz (Tetanic) for 1 second (80 pulses). […] The effect of test article was assessed on its ability to increase force generated from the stimulation pattern applied. The effect was assessed in the ability to increase force per se (tetanic, 80 Hz, stimulation), and the ratio between individual twitch peaks (12 Hz stimulation). […]

## C[C@H](Oc1ccc(Br)cc1F)c1nn[nH]n1 [Compound E-8, 5-[(1S)-1-(4-bromo-2-fluorophenoxy)ethyl]-2H-1,2,3,4-tetrazole]
  increase in tetanic force: 11%
